Experimental findings from patent US11655235B2, “Pyrrolidine and piperidine compounds” (YUHAN CORPORATION, priority 2019, dated 2023) are described below.

One experiment concerns the target T1, Recombinant human FAP (Homo sapiens, UniProt Q12884).
T1 construct: purchased R&D systems
T1 sequence (Q12884 1-760): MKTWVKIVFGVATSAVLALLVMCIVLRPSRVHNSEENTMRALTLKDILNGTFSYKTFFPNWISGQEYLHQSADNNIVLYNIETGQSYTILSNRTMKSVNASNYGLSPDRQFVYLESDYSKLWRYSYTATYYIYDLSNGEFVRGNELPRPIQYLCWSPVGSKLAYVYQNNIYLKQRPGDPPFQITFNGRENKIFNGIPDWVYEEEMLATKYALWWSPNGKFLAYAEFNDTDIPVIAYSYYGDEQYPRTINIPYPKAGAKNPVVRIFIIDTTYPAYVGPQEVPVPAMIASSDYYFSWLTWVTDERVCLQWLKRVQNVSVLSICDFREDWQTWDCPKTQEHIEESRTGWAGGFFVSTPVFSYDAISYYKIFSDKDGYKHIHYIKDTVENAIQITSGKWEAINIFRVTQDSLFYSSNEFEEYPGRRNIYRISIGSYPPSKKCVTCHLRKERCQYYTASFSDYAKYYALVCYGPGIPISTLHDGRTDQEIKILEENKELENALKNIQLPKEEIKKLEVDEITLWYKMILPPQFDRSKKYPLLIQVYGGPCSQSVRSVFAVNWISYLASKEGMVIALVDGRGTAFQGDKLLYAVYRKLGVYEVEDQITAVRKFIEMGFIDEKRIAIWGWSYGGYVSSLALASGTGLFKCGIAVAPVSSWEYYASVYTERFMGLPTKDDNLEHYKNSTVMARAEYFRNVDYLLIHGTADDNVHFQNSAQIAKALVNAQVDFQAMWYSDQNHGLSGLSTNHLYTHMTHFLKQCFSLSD
As to the kind of experiment: FAP inhibition, fluorogenic substrate Z-Gly-Pro-AMC. In kind it is biochemical. The conditions noted are these: for inhibition at 1 µM: read-out: hFAP inhibition % at 1 μM. Put shortly: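 Eight-point compound dilutions (≤0.1% DMSO) were incubated at 25° C with 10 ng recombinant human FAP in Tris pH 7.5/1 M NaCl/BSA buffer and Z-Gly-Pro-AMC. Inhibition was taken as % drop in fluorescence rate (380/460 nm) against uninhibited control; IC50 came from a four-parameter logistic fit.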

In a further experiment the target is DPP4 (Homo sapiens, UniProt P27487). As to the kind of experiment: DPP4 inhibition, fluorogenic substrate H-Gly-Pro-AMC. The class given is biochemical. Also on record: purchased R&D Systems. The conditions noted are these: for inhibition at 1 µM: read-out: hDPP4 inhibition % at 1 μM.
Sequence of DPP4 (P27487 whole entry): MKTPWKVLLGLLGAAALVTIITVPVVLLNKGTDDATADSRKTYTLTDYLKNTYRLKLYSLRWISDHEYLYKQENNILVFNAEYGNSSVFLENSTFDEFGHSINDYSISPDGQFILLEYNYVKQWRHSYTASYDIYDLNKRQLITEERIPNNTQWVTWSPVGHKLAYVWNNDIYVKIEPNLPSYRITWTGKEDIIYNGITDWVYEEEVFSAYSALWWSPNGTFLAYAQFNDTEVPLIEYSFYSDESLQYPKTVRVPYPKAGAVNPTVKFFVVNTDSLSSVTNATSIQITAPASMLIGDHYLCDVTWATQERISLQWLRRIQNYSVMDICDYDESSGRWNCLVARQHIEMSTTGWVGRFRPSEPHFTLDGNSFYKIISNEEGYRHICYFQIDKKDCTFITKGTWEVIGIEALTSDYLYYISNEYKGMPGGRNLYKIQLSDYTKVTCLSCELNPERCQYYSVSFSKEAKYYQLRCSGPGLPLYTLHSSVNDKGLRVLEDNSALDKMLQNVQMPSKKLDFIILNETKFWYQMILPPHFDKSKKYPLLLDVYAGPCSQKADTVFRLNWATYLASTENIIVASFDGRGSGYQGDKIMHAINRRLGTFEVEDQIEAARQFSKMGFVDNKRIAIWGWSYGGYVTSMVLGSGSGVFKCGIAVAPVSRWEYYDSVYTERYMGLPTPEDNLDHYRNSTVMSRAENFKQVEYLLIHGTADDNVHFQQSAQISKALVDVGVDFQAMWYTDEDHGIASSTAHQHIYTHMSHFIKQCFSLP
The mark [1] stands for this setting: 25° C., Z-Gly-Pro-AMC substrate.
The mark [2] stands for this setting: recombinant human FAP, substrate Z-Gly-Pro-AMC.

Structures are written as SMILES.

For `N#C[C@@H]1CCCN1C(=O)CN1CC[C@H](Oc2cccc(Oc3ccccc3)c2)C1` [Example 88, (S)-1-(2-((S)-3-(3-phenoxyphenoxy)pyrrolidin-1-yl)acetyl)pyrrolidine-2-carbonitrile], the inhibition at 1 µM on Recombinant human FAP amounted to 57.9%; on DPP4 it was 6.1%.
Consider `N#C[C@@H]1CCCN1C(=O)CN1CC[C@H](Oc2ccc(Cc3ccccc3)cc2)C1` [Example 89, (S)-1-(2-((S)-3-(4-benzylphenoxy)pyrrolidin-1-yl)acetyl)pyrrolidine-2-carbonitrile], for which the inhibition at 1 µM came out at 56.8% on Recombinant human FAP and 7.9% on DPP4.
With `N#C[C@@H]1CCCN1C(=O)CN1CC[C@H](Oc2ccccc2Cc2ccccc2)C1` [Example 90, (S)-1-(2-((S)-3-(2-benzylphenoxy)pyrrolidin-1-yl)acetyl)pyrrolidine-2-carbonitrile], the inhibition at 1 µM on Recombinant human FAP was found to be 52.9%; at DPP4, 7.7%.
With `N#C[C@@H]1CCCN1C(=O)CN1CC[C@H](Oc2cccc(C(=O)c3ccccc3)c2)C1` [Example 91, (S)-1-(2-((S)-3-(3-benzoylphenoxy)pyrrolidin-1-yl)acetyl)pyrrolidine-2-carbonitrile], the inhibition at 1 µM was 59.2% at Recombinant human FAP and 9.1% on DPP4.
As to `N#C[C@@H]1CCCN1C(=O)CN1CC[C@H](Oc2ccc(C(=O)c3ccccc3)cc2)C1` [Example 92, (S)-1-(2-((S)-3-(4-benzoylphenoxy)pyrrolidin-1-yl)acetyl)pyrrolidine-2-carbonitrile], the inhibition at 1 µM came to 56.4% on Recombinant human FAP and 10.2% at DPP4.
Take `N#C[C@@H]1CCCN1C(=O)CN1CC[C@H](Oc2cc(OCc3ccccc3)ccn2)C1` [Example 93, (S)-1-(2-((S)-3-((4-(benzyloxy)pyridin-2-yl)oxy)pyrrolidin-1-yl)acetyl)pyrrolidine-2-carbonitrile]: the IC50 at Recombinant human FAP (setting [1]) was 69.6 nM. Also, the inhibition at 1 µM at DPP4 was determined as 11.6%.
For the compound `N#C[C@@H]1CCCN1C(=O)CN1CC[C@H](Oc2ccnc3cc(C(F)(F)F)ccc23)C1` [Example 94, (S)-1-(2-((S)-3-((7-(trifluoromethyl)quinolin-4-yl)oxy)pyrrolidin-1-yl)acetyl)pyrrolidine-2-carbonitrile], the IC50 on Recombinant human FAP (setting [1]) came to 63.3 nM. In addition, the inhibition at 1 µM on DPP4 worked out at 6.9%.
In the case of `N#C[C@@H]1CCCN1C(=O)CN1CC[C@H](Oc2cccc3cc4ccccc4nc23)C1` [Example 96, (S)-1-(2-((S)-3-(acridin-4-yloxy)pyrrolidin-1-yl)acetyl)pyrrolidine-2-carbonitrile], at Recombinant human FAP (setting [1]), the half-maximal inhibitory concentration (IC50) was 270 nM. In addition, on DPP4, the inhibition at 1 µM was 11.5%.
Turning to `N#C[C@@H]1CCCN1C(=O)CN1CC[C@H](Oc2ccccc2-c2nc3ccccc3o2)C1` [Example 97, (S)-1-(2-((S)-3-(2-(benzo[d]oxazol-2-yl)phenoxy)pyrrolidin-1-yl)acetyl)pyrrolidine-2-carbonitrile], the inhibition at 1 µM on Recombinant human FAP stood at 36.3%; at DPP4, 8.3%.
Turning to `CC(=O)N1CCN(c2ccc(O[C@H]3CCN(CC(=O)N4CCC[C@H]4C#N)C3)cc2)CC1` [Example 98, (S)-1-(2-((S)-3-(4-(4-acetylpiperazin-1-yl)phenoxy)pyrrolidin-1-yl)acetyl)pyrrolidine-2-carbonitrile], the inhibition at 1 µM on Recombinant human FAP was determined as 63.2%; at DPP4, 9.1%.
On to `N#C[C@@H]1CCCN1C(=O)CN1CC[C@H](Oc2ccccc2C(=O)Nc2ccccc2)C1` [Example 99, 2-(((S)-1-(2-((S)-2-cyanopyrrolidin-1-yl)-2-oxoethyl)pyrrolidin-3-yl)oxy)-N-phenylbenzamide], for which the values for the inhibition at 1 µM at Recombinant human FAP and at DPP4 were 18.2% and 10.9%, respectively.
For `N#C[C@@H]1CCCN1C(=O)CN1CC[C@H](Oc2cc(-c3ccc(Br)cc3)no2)C1` [Example 102, (S)-1-(2-((S)-3-((3-(4-bromophenyl)isoxazol-5-yl)oxy)pyrrolidin-1-yl)acetyl)pyrrolidine-2-carbonitrile] the same measures were 52.4% and 6.2%.
Turning to `N#C[C@@H]1C[C@@H]2C[C@@H]2N1C(=O)CN1CCC(Nc2ccnc3ccccc23)CC1` [Example 112, (1S,3S,5S)-2-(2-(4-(quinolin-4-ylamino)piperidin-1-yl)acetyl)-2-azabicyclo[3.1.0]hexane-3-carbonitrile], on Recombinant human FAP (setting [1]), the half-inhibitory concentration (IC50) stood at 18.8 nM. Further, the “hDPP4 inhibition % at 1 μM” value on DPP4 is “No inhibition**”.
Turning to `N#C[C@@H]1CCCN1C(=O)CN1CCC(Nc2cncc3ccoc23)CC1` [Example 116, (S)-1-(2-(4-(furo[3,2-c]pyridin-7-ylamino)piperidin-1-yl)acetyl)pyrrolidine-2-carbonitrile], on Recombinant human FAP, the inhibition at 1 µM came out at 82.4%. Also, on DPP4, the “hDPP4 inhibition % at 1 μM” value is listed as “No inhibition**”.
As to `N#C[C@@H]1CCCN1C(=O)CN1CCC(Oc2cnc3ccccc3c2)CC1` [Example 117, (S)-1-(2-(4-(quinolin-3-yloxy)piperidin-1-yl)acetyl)pyrrolidine-2-carbonitrile], the concentration for half-maximal inhibition (IC50) on Recombinant human FAP (setting [1]) worked out at 22.9 nM. Moreover, the “hDPP4 inhibition % at 1 μM” value on DPP4 is listed as “No inhibition**”.
Regarding `N#C[C@@H]1CCCN1C(=O)CN1CCC(Oc2ccc3ncccc3c2)CC1` [Example 120, (S)-1-(2-(4-(quinolin-6-yloxy)piperidin-1-yl)acetyl)pyrrolidine-2-carbonitrile], the half-inhibitory concentration (IC50) on Recombinant human FAP (setting [1]) came to 11.8 nM. Besides, on DPP4, the “hDPP4 inhibition % at 1 μM” value is listed as “No inhibition**”.
Consider `Cc1ccc2ncccc2c1NC1CCN(CC(=O)N2C[C@@H](F)C[C@H]2C#N)CC1` [Example 134, (2S,4S)-4-fluoro-1-(2-(4-((6-methylquinolin-5-yl)amino)piperidin-1-yl)acetyl)pyrrolidine-2-carbonitrile], for which the 50% inhibitory concentration (IC50) at Recombinant human FAP (setting [1]) is 343 nM; on DPP4 (25° C., H-Gly-Pro-AMC substrate), 8010 nM.
With `COc1ccc2ncccc2c1N[C@H]1CCN(CC(=O)N2CCC[C@H]2C#N)C1` [Example 240, (2S)-1-[2-[(3S)-3-[(6-methoxy-5-quinolyl)amino]pyrrolidin-1-yl]acetyl]pyrrolidine-2-carbonitrile], the 50% inhibitory concentration (IC50) is 20 nM on Recombinant human FAP (setting [2]) and more than 10000 nM on DPP4 (recombinant human DPP4).
Turning to `CN(c1ccc2ccccc2n1)C1CCN(CC(=O)N2CCC[C@H]2C#N)CC1` [Example 307, (2S)-1-[2-[4-[methyl(2-quinolyl)amino]-1-piperidyl]acetyl]pyrrolidine-2-carbonitrile], the half-maximal inhibitory concentration (IC50) on Recombinant human FAP (setting [2]) was 47.1 nM; on DPP4 (recombinant human DPP4) it was more than 10000 nM.
With `CN(c1ccnc2ccccc12)C1CCN(CC(=O)N2CCC[C@H]2C#N)CC1` [Example 308, (2S)-1-[2-[4-[methyl(4-quinolyl)amino]-1-piperidyl]acetyl]pyrrolidine-2-carbonitrile], the IC50 was 96.8 nM at Recombinant human FAP (setting [2]) and more than 10000 nM at DPP4 (recombinant human DPP4).
For `CN(c1cccc2ncccc12)C1CCN(CC(=O)N2CCC[C@H]2C#N)CC1` [Example 309, (2S)-1-[2-[4-[methyl(5-quinolyl)amino]-1-piperidyl]acetyl]pyrrolidine-2-carbonitrile], the figures for the IC50 at Recombinant human FAP (setting [2]) and on DPP4 (recombinant human DPP4) were 68.3 nM and more than 10000 nM, respectively.
As to `CN(c1cncc2ccoc12)C1CCN(CC(=O)N2CCC[C@H]2C#N)CC1` [Example 312, (2S)-1-[2-[4-[furo[3,2-c]pyridin-7-yl(methyl)amino]-1-piperidyl]acetyl]pyrrolidine-2-carbonitrile], the half-inhibitory concentration (IC50) on Recombinant human FAP (setting [2]) is 31.8 nM; on DPP4 (recombinant human DPP4), more than 10000 nM.
For `CN(c1cccc2cnccc12)C1CCN(CC(=O)N2C[C@@H](F)C[C@H]2C#N)CC1` [Example 318, (2S,4S)-4-fluoro-1-[2-[4-[5-isoquinolyl(methyl)amino]-1-piperidyl]acetyl]pyrrolidine-2-carbonitrile] the same measures were 18.2 nM and more than 10000 nM.
On to `CN(c1cccc2ccncc12)C1CCN(CC(=O)N2C[C@@H](F)C[C@H]2C#N)CC1` [Example 320, (2S,4S)-4-fluoro-1-[2-[4-[8-isoquinolyl(methyl)amino]-1-piperidyl]acetyl]pyrrolidine-2-carbonitrile], for which the half-maximal inhibitory concentration (IC50) came to 46.2 nM on Recombinant human FAP (setting [2]) and 410 nM at DPP4 (recombinant human DPP4).
For `N#C[C@@H]1C[C@H](F)CN1C(=O)CN1CCC(Nc2ccc(OCc3ccccc3)c3ncccc23)CC1` [Example 332, (2S,4S)-1-[2-[4-[(8-benzyloxy-5-quinolyl)amino]-1-piperidyl]acetyl]-4-fluoro-pyrrolidine-2-carbonitrile] the same measures were 5.5 nM and 6200 nM.
In the case of `N#C[C@@H]1C[C@H](F)CN1C(=O)CN1CCC(Nc2cccc3ncc(Cl)cc23)CC1` [Example 333, (2S,4S)-1-[2-[4-[(3-chloro-5-quinolyl)amino]-1-piperidyl]acetyl]-4-fluoro-pyrrolidine-2-carbonitrile], the figures for the concentration for half-maximal inhibition (IC50) on Recombinant human FAP (setting [2]) and on DPP4 (recombinant human DPP4) were 2.6 nM and 7540 nM, respectively.
